Measurements as given in patent US20140073634A1 (Institute For Applied Cancer Science/The University of …, priority 2012, published 2014).
Where a name gives a salt, the structure may show the parent alone.

System: 293T-HRE-GFP-luc cells
Assay: Cell-based reporter assay for IC50 determinations (HRE-luciferase, hypoxia)
Conditions: 6 hrs hypoxia (1% O2), luminescence
Method: Cell-Based Reporter Assay for IC50 Determinations
293T-HRE-GFP-luc cells were routinely maintained in DMEM media (high glucose version with GlutaMAX and HEPES, Gibco, catalog #10564) supplemented with 10% fetal bovine serum and 2 μg/mL puromycin (Invitrogen, catalog #A11138-03) using a humidified incubator (normoxia conditions consisting of 37° C., 5% CO2 and ambient O2).
In preparation for the reporter assay, cells were harvested and resuspended in DMEM media (high glucose version with GlutaMAX and HEPES) supplemented with 10% fetal bovine serum. Cells were inoculated into 384-well white Culturplates (Perkin Elmer catalog #6007680) at a density of 12,000 cells/well in a volume of […]. The microplates were incubated overnight (approximately 17-19 hours) at 37° C. with 5% CO2 and ambient O2. Stock solutions of the test compounds were prepared in DMSO (Sigma, Catalog #D2650) and serially diluted 1:3 using DMSO. Compounds were additionally diluted (1:50) with culturemedium and 10 µL were added per well to the Culturplate. Following a 30 min. incubation under normoxia conditions, the plates were incubated in hypoxia for 6 hrs. (37° C., 5% CO2 and 1% O2). Steadylite Plus (Perkin Elmer, catalog #6016751) was then added ([…]), the plates were mixed on an orbital shaker at room temperature in the dark for 15 min., and luminescence was measured using an Envision plate reader (Perkin Elmer). IC50 values were calculated using a four-parameter logistic curve fit. Results are shown below in Table 2; ND indicates no data.

Structure (SMILES) | IC50 [nM] | IC50 (6 h) [nM]
O=c1ccc(-c2nc(-c3ccc(OC(F)(F)F)cc3)no2)cn1Cc1cccc(C(O)CO)c1 (single isomer, unassigned) [Example 53a, (1R)- or (1S)-1-(3-(1,2-dihydroxyethyl)benzyl)-5-(3-(4-(trifluoromethoxy)phenyl)-1,2,4-oxadiazol-5-yl)pyridin-2(1H)-one] | < 100 | –
O=c1ccc(-c2nc(-c3ccc(OC(F)(F)F)cc3)no2)cn1Cc1cccc(C(O)CO)c1 (single isomer, unassigned) [Example 53b, (1S)- or (1R)-1-(3-(1,2-dihydroxyethyl)benzyl)-5-(3-(4-(trifluoromethoxy)phenyl)-1,2,4-oxadiazol-5-yl)pyridin-2(1H)-one] | < 100 | –
O=c1ccc(-c2nc(-c3ccc(OC(F)(F)F)cc3)no2)cn1Cc1cccc(OCC(O)CO)c1 (single isomer, unassigned) [Example 55a, (2R)- or (2S)-1-(3-(2,3-dihydroxypropoxy)benzyl)-5-(3-(4-(trifluoromethoxy)phenyl)-1,2,4-oxadiazol-5-yl)pyridin-2(1H)-one] | < 100 | –
O=c1ccc(-c2nc(-c3ccc(OC(F)(F)F)cc3)no2)cn1Cc1cccc(OCC(O)CO)c1 (single isomer, unassigned) [Example 55b, (2S)- or (2R)-1-(3-(2,3-dihydroxypropoxy)benzyl)-5-(3-(4-(trifluoromethoxy)phenyl)-1,2,4-oxadiazol-5-yl)pyridin-2(1H)-one] | < 100 | –
O=c1ccc(-c2nc(-c3ccc(OC(F)(F)F)cc3)no2)nn1Cc1ccnc(N2CCNCC2)c1 [Example 1] | – | < 100
CN1CCN(c2cc(Cn3nc(-c4nc(-c5ccc(OC(F)(F)F)cc5)no4)ccc3=O)ccn2)CC1 [Example 2] | – | < 100
CN1CCN(c2cc(Cn3nc(C(=O)Nc4ccc(OC(F)(F)F)cc4)ccc3=O)ccn2)CC1 [Example 3, 1-(2-(4-Methylpiperazin-1-yl)pyridin-4-yl)methyl)-6-oxo-N-(4-(trifluoromethoxy)phenyl)-1,6-dihydropyridazine-3-carboxamide bis trifluoroacetate salt] | – | 100 to 1000
CN1CCN(c2cccc(Cn3nc(C(=O)Nc4ccc(OC(F)(F)F)cc4)ccc3=O)c2)CC1 [Example 4, 1-(3-(4-Methylpiperazin-1-yl)benzyl)-6-oxo-N-(4-(trifluoromethoxy)phenyl)-1,6-dihydropyridazine-3-carboxamide trifluoroacetate salt] | – | < 100
Cc1ccc(-c2nc(-c3ccc(OC(F)(F)F)cc3)no2)c(=O)n1Cc1ccnc(N2CCN(C)CC2)c1 [Example 5, 1-methyl-4-(4-((6-methyl-2-oxo-3-(3-(4-(trifluoromethoxy)phenyl)-1,2,4-oxadiazol-5-yl)pyridin-1(2H)-yl)methyl)pyridin-1-ium-2-yl)piperazin-1-ium bis-trifluoroacetate] | – | < 100
Cc1ccc(-c2nc(-c3ccc(OC(F)(F)F)cc3)no2)c(=O)n1Cc1cccc(N2CCN(C)CC2)c1 [Example 6, 1-Methyl-4-(3-((6-methyl-2-oxo-3-(3-(4-(trifluoromethoxy)phenyl)-1,2,4-oxadiazol-5-yl)pyridin-1(2H)-yl)methyl)phenyl)piperazin-1-ium trifluoroacetate] | – | < 100
Cc1ccc(C(=O)Nc2ccc(OC(F)(F)F)cc2)c(=O)n1Cc1ccnc(N2CCN(C)CC2)c1 [Example 8, 1-methyl-4-(4-((6-methyl-2-oxo-3-((4-(trifluoromethoxy)phenyl)carbamoyl)pyridin-1(2H)-yl)methyl)pyridin-1-ium-2-yl)piperazin-1-ium bis-trifluoroacetate] | – | < 100
CN1CCN(c2cc(Cn3cccc(C(=O)Nc4ccc(OC(F)(F)F)cc4)c3=O)ccn2)CC1 [Example 9, 1-methyl-4-(4-((2-oxo-3-((4-(trifluoromethoxy)phenyl)carbamoyl)pyridin-1(2H)-yl)methyl)pyridin-1-ium-2-yl)piperazin-1-ium bis-trifluoroacetate] | – | 100 to 1000
Cc1ccc(C(=O)Nc2ccc(OC(F)(F)F)cc2)c(=O)n1Cc1cccc(N2CCN(C)CC2)c1 [Example 10, 1-Methyl-4-(3-((6-methyl-2-oxo-3-((4-(trifluoromethoxy)phenyl)carbamoyl)pyridin-1(2H)-yl)methyl)phenyl)piperazin-1-ium trifluoroacetate] | – | < 100
CN1CCN(c2cccc(Cn3cccc(C(=O)Nc4ccc(OC(F)(F)F)cc4)c3=O)c2)CC1 [Example 11, 1-Methyl-4-(3-((2-oxo-3-((4-(trifluoromethoxy)phenyl)carbamoyl)pyridin-1(2H)-yl)methyl)phenyl)piperazin-1-ium trifluoroacetate] | – | < 100
O=c1ccc(-c2nc(-c3ccc(OC(F)(F)F)cc3)no2)nn1Cc1ccnc(N2CCOCC2)c1 [Example 12, 2-((2-Morpholinopyridin-4-yl)methyl)-6-(3-(4-(trifluoromethoxy)phenyl)-1,2,4-oxadiazol-5-yl)pyridazin-3(2H)-one] | – | < 100
CN1CCN(c2cccc(Cn3nc(-c4nc(-c5ccc(OC(F)(F)F)cc5)no4)ccc3=O)c2)CC1 [Example 13, 2-(3-(4-Methylpiperazin-1-yl)benzyl)-6-(3-(4-(trifluoromethoxy)phenyl)-1,2,4-oxadiazol-5-yl)pyridazin-3(2H)-one] | – | < 100
O=c1ccc(-c2nc(-c3ccc(OC(F)(F)F)cc3)no2)nn1Cc1cccc(N2CCOCC2)c1 [Example 14, 2-(3-Morpholinobenzyl)-6-(3-(4-(trifluoromethoxy)phenyl)-1,2,4-oxadiazol-5-yl)pyridazin-3(2H)-one] | – | < 100
Cc1ccc(-c2nc(-c3ccc(OC(F)(F)F)cc3)no2)c(=O)n1Cc1ccnc(N2CCCCC2)c1 [Example 15, 4-((6-Methyl-2-oxo-3-(3-(4-(trifluoromethoxy)phenyl)-1,2,4-oxadiazol-5-yl)pyridin-1(2H)-yl)methyl)-2-(piperidin-1-yl)pyridin-1-ium trifluoroacetate] | – | < 100
Cc1ccc(-c2nc(-c3ccc(OC(F)(F)F)cc3)no2)c(=O)n1Cc1ccnc(N2CCCC2)c1 [Example 16, 4-((6-methyl-2-oxo-3-(3-(4-(trifluoromethoxy)phenyl)-1,2,4-oxadiazol-5-yl)pyridin-1(2H)-yl)methyl)-2-(pyrrolidin-1-yl)pyridin-1-ium trifluoroacetate] | – | < 100
COCCCNc1cc(Cn2c(C)ccc(-c3nc(-c4ccc(OC(F)(F)F)cc4)no3)c2=O)ccn1 [Example 17, 2-((3-Methoxypropyl)amino)-4-((6-methyl-2-oxo-3-(3-(4-(trifluoromethoxy)phenyl)-1,2,4-oxadiazol-5-yl)pyridin-1(2H)-yl)methyl)pyridin-1-ium trifluoroacetate] | – | 100 to 1000
Cc1ccc(-c2nc(-c3ccc(OC(F)(F)F)cc3)no2)c(=O)n1Cc1ccnc(N2CCOCC2)c1 [Example 18, 4-((6-Methyl-2-oxo-3-(3-(4-(trifluoromethoxy)phenyl)-1,2,4-oxadiazol-5-yl)pyridin-1(2H)-yl)methyl)-2-morpholinopyridin-1-ium trifluoroacetate] | – | < 100
Cc1cnc(-c2nc(-c3ccc(OC(F)(F)F)cc3)no2)nc1Cc1cccc(N2CCN(C)CC2)c1 [Example 19, 5-(5-methyl-4-(3-(4-methylpiperazin-1-yl)benzyl)pyrimidin-2-yl)-3-(4-(trifluoromethoxy)phenyl)-1,2,4-oxadiazole] | – | < 100
CN1CCN(c2cc(Cn3cccc(-c4nc(-c5ccc(OC(F)(F)F)cc5)no4)c3=O)ccn2)CC1 [Example 20, 1-((2-(4-methylpiperazin-1-yl)pyridin-4-yl)methyl)-3-(3-(4-(trifluoromethoxy)phenyl)-1,2,4-oxadiazol-5-yl)pyridin-2(1H)-one] | – | 100 to 1000
Cc1ccc(-c2nnc(-c3ccc(OC(F)(F)F)cc3)o2)c(=O)n1Cc1ccnc(N2CCN(C)CC2)c1 [Example 21, 6-methyl-1-((2-(4-methylpiperazin-1-yl)pyridin-4-yl)methyl)-3-(5-(4-(trifluoromethoxy)phenyl)-1,3,4-oxadiazol-2-yl)pyridin-2(1H)-one] | – | 1000 to 10000
Cc1ccc(-c2nc(-c3ccc(OC(F)(F)F)cc3)no2)c(=O)n1Cc1cccc(C(N)=O)c1 [Example 22, 3-((6-Methyl-2-oxo-3-(3-(4-(trifluoromethoxy)phenyl)-1,2,4-oxadiazol-5-yl)pyridin-1(2H)-yl)methyl)benzamide] | – | 100 to 1000
CNC(=O)c1cccc(Cn2c(C)ccc(-c3nc(-c4ccc(OC(F)(F)F)cc4)no3)c2=O)c1 [Example 23, N-Methyl-3-((6-methyl-2-oxo-3-(3-(4-(trifluoromethoxy)phenyl)-1,2,4-oxadiazol-5-yl)pyridin-1(2H)-yl)methyl)benzamide] | – | 100 to 1000
Cc1ccc(Cn2nc(-c3nc(-c4ccc(OC(F)(F)F)cc4)no3)ccc2=O)cc1 [Example 24, 2-(4-Methylbenzyl)-6-(3-(4-(trifluoromethoxy)phenyl)-1,2,4-oxadiazol-5-yl)pyridazin-3(2H)-one] | – | < 100
NC(=O)c1cccc(Cn2cc(-c3nc(-c4ccc(OC(F)(F)F)cc4)no3)ccc2=O)c1 [Example 25, 3-((2-oxo-5-(3-(4-(trifluoromethoxy)phenyl)-1,2,4-oxadiazol-5-yl)pyridin-1(2H)-yl)methyl)benzamide] | – | < 100
